Reference: the NIST ThermoML archive (doi:10.1021/je800110r)
Values joined by “and” are separate entries in the source; they are usually repeats but may differ in a detail not shown here. Identical values can stand only once.

Settings: 303.16 K, Liquid, Vibrating tube method

CCCCCCCCCC [decane]
Settings	mass density
4941 kPa	726.2 kg/m3
4955 kPa	726.3 kg/m3
4969 kPa	726.3 kg/m3
4979 kPa	726.4 kg/m3
4994 kPa	726.4 kg/m3
5007 kPa	726.3 kg/m3
5019 kPa	726.4 kg/m3
5029 kPa	726.4 kg/m3
5041 kPa	726.3 kg/m3
5052 kPa	726.3 kg/m3
5065 kPa	726.4 kg/m3
5075 kPa	726.5 kg/m3
5091 kPa	726.4 kg/m3
5107 kPa	726.5 kg/m3
5119 kPa	726.6 kg/m3
5129 kPa	726.5 kg/m3
5140 kPa	726.5 kg/m3
5153 kPa	726.4 kg/m3
5167 kPa	726.5 kg/m3
5177 kPa	726.4 kg/m3
5193 kPa	726.4 kg/m3
5209 kPa	726.4 kg/m3
5220 kPa	726.6 kg/m3
5236 kPa	726.5 kg/m3
5251 kPa	726.5 kg/m3
5261 kPa	726.5 kg/m3
5276 kPa	726.5 kg/m3
5292 kPa	726.5 kg/m3
5309 kPa	726.5 kg/m3
5318 kPa	726.4 kg/m3
5331 kPa	726.6 kg/m3
5342 kPa	726.7 kg/m3
5359 kPa	726.6 kg/m3
5374 kPa	726.6 kg/m3
5385 kPa	726.6 kg/m3
5399 kPa	726.5 kg/m3
5412 kPa	726.5 kg/m3
5427 kPa	726.7 kg/m3
5443 kPa	726.6 kg/m3
5459 kPa	726.7 kg/m3
5473 kPa	726.7 kg/m3
5488 kPa	726.8 kg/m3
5501 kPa	726.6 kg/m3
5514 kPa	726.8 kg/m3
5532 kPa	726.8 kg/m3
5548 kPa	726.7 kg/m3
5562 kPa	726.8 kg/m3
5576 kPa	726.8 kg/m3
5593 kPa	726.8 kg/m3
5607 kPa	726.8 kg/m3
5626 kPa	726.8 kg/m3
5642 kPa	726.8 kg/m3
5655 kPa	726.8 kg/m3
5674 kPa	726.9 kg/m3
5690 kPa	726.9 kg/m3
5705 kPa	726.8 kg/m3
5723 kPa	727 kg/m3
5738 kPa	726.9 kg/m3
5751 kPa	726.9 kg/m3
5770 kPa	727 kg/m3
5791 kPa	727 kg/m3
5803 kPa	726.9 kg/m3
5819 kPa	727 kg/m3
5834 kPa	726.9 kg/m3
5851 kPa	726.9 kg/m3
5864 kPa	727 kg/m3
5873 kPa	727 kg/m3
5878 kPa	727 kg/m3
5884 kPa	727 kg/m3
5887 kPa	727.1 kg/m3
5896 kPa	727.1 kg/m3
5908 kPa	727.1 kg/m3
5926 kPa	727.1 kg/m3
5940 kPa	727 kg/m3
5954 kPa	727 kg/m3
5971 kPa	727.1 kg/m3
5986 kPa	727.1 kg/m3
6008 kPa	727 kg/m3
6029 kPa	727.1 kg/m3
6044 kPa	727.2 kg/m3
6063 kPa	727 kg/m3
6080 kPa	727.3 kg/m3
6100 kPa	727.2 kg/m3
6118 kPa	727.1 kg/m3
6139 kPa	727.3 kg/m3
6161 kPa	727.3 kg/m3
6178 kPa	727.2 kg/m3
6196 kPa	727.2 kg/m3
6201 kPa	727 kg/m3
6204 kPa	727.3 kg/m3
6205 kPa	727.3 kg/m3
6209 kPa	727.3 kg/m3
6210 kPa	727.2 kg/m3
6211 kPa	727.3 kg/m3
6212 kPa	727.3 kg/m3
6213 kPa	727.3 kg/m3
6214 kPa	727.2 kg/m3
6215 kPa	727.3 kg/m3 and 727.2 kg/m3
6216 kPa	727.2 kg/m3 and 727.3 kg/m3 and 727.4 kg/m3
6222 kPa	727.3 kg/m3
6239 kPa	727.2 kg/m3
6255 kPa	727.3 kg/m3
6262 kPa	727.4 kg/m3
6278 kPa	727.2 kg/m3
6282 kPa	727.3 kg/m3
6283 kPa	727.3 kg/m3
6306 kPa	727.4 kg/m3
6327 kPa	727.3 kg/m3
6345 kPa	727.4 kg/m3
6368 kPa	727.4 kg/m3
6383 kPa	727.4 kg/m3
6399 kPa	727.5 kg/m3
6414 kPa	727.4 kg/m3
6427 kPa	727.5 kg/m3
6451 kPa	727.5 kg/m3
6470 kPa	727.5 kg/m3
6485 kPa	727.6 kg/m3
6507 kPa	727.4 kg/m3
6524 kPa	727.5 kg/m3
6545 kPa	727.6 kg/m3
6560 kPa	727.5 kg/m3
6580 kPa	727.5 kg/m3
6598 kPa	727.6 kg/m3
6621 kPa	727.7 kg/m3
6642 kPa	727.6 kg/m3
6661 kPa	727.7 kg/m3
6684 kPa	727.7 kg/m3
6705 kPa	727.6 kg/m3
6721 kPa	727.6 kg/m3
6735 kPa	727.7 kg/m3
6759 kPa	727.7 kg/m3
6783 kPa	727.8 kg/m3
6799 kPa	727.7 kg/m3
6818 kPa	727.8 kg/m3
6841 kPa	727.7 kg/m3
6864 kPa	727.8 kg/m3
6881 kPa	727.9 kg/m3
6904 kPa	727.9 kg/m3
6929 kPa	727.9 kg/m3
6949 kPa	727.9 kg/m3
6969 kPa	727.8 kg/m3
6992 kPa	727.8 kg/m3
7009 kPa	728 kg/m3
7035 kPa	727.9 kg/m3
7053 kPa	728 kg/m3
7084 kPa	727.9 kg/m3
7102 kPa	728 kg/m3
7120 kPa	727.9 kg/m3
7147 kPa	728 kg/m3
7171 kPa	728 kg/m3
7193 kPa	728 kg/m3
7215 kPa	728.1 kg/m3
7235 kPa	728.1 kg/m3
7258 kPa	728.1 kg/m3
7279 kPa	728.1 kg/m3
7295 kPa	728 kg/m3
7309 kPa	728.1 kg/m3
7326 kPa	728.1 kg/m3
7343 kPa	728.2 kg/m3
7357 kPa	728.1 kg/m3
7371 kPa	728.2 kg/m3
7388 kPa	728.3 kg/m3
7403 kPa	728.1 kg/m3
7422 kPa	728.3 kg/m3
7442 kPa	728.3 kg/m3
7459 kPa	728.3 kg/m3
7474 kPa	728.2 kg/m3
7491 kPa	728.3 kg/m3
7511 kPa	728.2 kg/m3
7532 kPa	728.4 kg/m3
7549 kPa	728.3 kg/m3
7567 kPa	728.3 kg/m3
7588 kPa	728.4 kg/m3
7605 kPa	728.4 kg/m3
7626 kPa	728.4 kg/m3
7644 kPa	728.3 kg/m3
7665 kPa	728.5 kg/m3
7683 kPa	728.3 kg/m3
7699 kPa	728.5 kg/m3
7720 kPa	728.4 kg/m3
7737 kPa	728.4 kg/m3
7756 kPa	728.5 kg/m3
7783 kPa	728.5 kg/m3
7802 kPa	728.5 kg/m3
7819 kPa	728.5 kg/m3
7847 kPa	728.5 kg/m3
7867 kPa	728.5 kg/m3
7880 kPa	728.5 kg/m3
7901 kPa	728.6 kg/m3
7922 kPa	728.6 kg/m3
7936 kPa	728.6 kg/m3
7957 kPa	728.7 kg/m3
7974 kPa	728.6 kg/m3
7993 kPa	728.7 kg/m3
8014 kPa	728.6 kg/m3
8028 kPa	728.7 kg/m3
8052 kPa	728.6 kg/m3
8069 kPa	728.7 kg/m3
8088 kPa	728.7 kg/m3
8105 kPa	728.8 kg/m3
8124 kPa	728.7 kg/m3
8139 kPa	728.7 kg/m3
8157 kPa	728.8 kg/m3
8172 kPa	728.9 kg/m3
8191 kPa	728.8 kg/m3
8214 kPa	728.9 kg/m3
8229 kPa	728.9 kg/m3
8249 kPa	728.8 kg/m3
8265 kPa	728.8 kg/m3
8287 kPa	728.9 kg/m3
8313 kPa	729 kg/m3
8328 kPa	728.9 kg/m3
8349 kPa	728.9 kg/m3
8365 kPa	729 kg/m3
8382 kPa	729.1 kg/m3
8400 kPa	729.1 kg/m3
8417 kPa	729 kg/m3
8439 kPa	728.9 kg/m3
8459 kPa	729 kg/m3
8476 kPa	729.1 kg/m3
8493 kPa	729.1 kg/m3
8509 kPa	729 kg/m3
8529 kPa	729 kg/m3
8546 kPa	729.1 kg/m3
8561 kPa	729.2 kg/m3
8582 kPa	729.1 kg/m3
8601 kPa	729.2 kg/m3
8617 kPa	729.2 kg/m3
8632 kPa	729.2 kg/m3
8647 kPa	729.2 kg/m3
8663 kPa	729.2 kg/m3
8682 kPa	729.2 kg/m3
8699 kPa	729.2 kg/m3
8715 kPa	729.2 kg/m3
8730 kPa	729.2 kg/m3
8742 kPa	729.3 kg/m3
8752 kPa	729.3 kg/m3
8768 kPa	729.2 kg/m3
8778 kPa	729.3 kg/m3
8792 kPa	729.2 kg/m3
8807 kPa	729.4 kg/m3
8821 kPa	729.3 kg/m3
8831 kPa	729.3 kg/m3
8847 kPa	729.2 kg/m3
8862 kPa	729.3 kg/m3
8874 kPa	729.2 kg/m3
8884 kPa	729.4 kg/m3
8895 kPa	729.3 kg/m3
8905 kPa	729.3 kg/m3
8920 kPa	729.4 kg/m3
8936 kPa	729.4 kg/m3
8948 kPa	729.4 kg/m3
8961 kPa	729.5 kg/m3
8973 kPa	729.4 kg/m3
8986 kPa	729.4 kg/m3
8998 kPa	729.5 kg/m3
9014 kPa	729.5 kg/m3
9025 kPa	729.4 kg/m3
9040 kPa	729.5 kg/m3
9051 kPa	729.5 kg/m3
9064 kPa	729.4 kg/m3
9075 kPa	729.5 kg/m3
9092 kPa	729.6 kg/m3
9107 kPa	729.6 kg/m3
9118 kPa	729.5 kg/m3
9133 kPa	729.6 kg/m3
9151 kPa	729.6 kg/m3
9166 kPa	729.5 kg/m3
9179 kPa	729.5 kg/m3
9192 kPa	729.6 kg/m3
9204 kPa	729.6 kg/m3
9219 kPa	729.7 kg/m3
9237 kPa	729.6 kg/m3
9251 kPa	729.6 kg/m3
